Assay: Lethal dose in mice when administered orally
Format: toxicity, organism-based
Settings: mouse, in vivo, po

Row | SMILES | LD50 [mg/kg]
1 | CC(C)Cc1ccc(C(C)C(=O)OCCOCCOCCOCCO)cc1 (stereo not drawn) | > 2000
2 | CC(C)Cc1ccc(C(C)C(=O)OCCOCCOCCOCCOCCOCCOCCOCCOCCOCCOCCOCCOCCOCCOCCOCCOCCOCCOCCOCCOCCOCCOCCOCCOCCOCCOCCOCCOCCOCCOCCOCCOCCOCCOCCOCCOCCOCCOCCOCCOCCOCCOCCOCCOCCOC(=O)C(C)c2ccc(CC(C)C)cc2)cc1 (stereo not drawn) | > 2000
3 | CC(C)Cc1ccc(C(C)C(=O)OCCOCCOCCOCCOCCOCCOCCOCCOCCOCCOCCOCCOCCOCCOCCOCCOCCOCCOCCOCCOC(=O)C(C)c2ccc(CC(C)C)cc2)cc1 (stereo not drawn) | > 2000
